Experimental data as given in ChEMBL document CHEMBL3046407, “Toxicity of monoterpenes against larvae and adults of Colorado potato beetle, Leptinotarsa decemlineata Say (Coleoptera: Chrysomelidae)” (2007).

What was measured:
Sitophilus granarius = experiment: Insecticidal activity against Sitophilus granarius (granary weevil) assessed as mortality; format: functional
[1] = system: Leptinotarsa decemlineata; experiment: Insecticidal activity against second-instar larval stage of Leptinotarsa decemlineata infested potato leaves assessed as mortality at 1 mg after 12 hr relative to control; format: functional
[2] = system: Leptinotarsa decemlineata; experiment: Insecticidal activity against adult Leptinotarsa decemlineata infested potato leaves assessed as mortality at 1 mg after 48 hr relative to control; format: functional
[3] = system: Leptinotarsa decemlineata; format: functional, Instar larval stage
[4] = system: Leptinotarsa decemlineata; format: functional, Instar larval stage; remark: listed apart in the source
[5] = system: Leptinotarsa decemlineata; experiment: Insecticidal activity against first-instar larval stage of Leptinotarsa decemlineata infested potato leaves assessed as mortality at 1 mg after 24 hr relative to control; format: functional
[6] = system: Leptinotarsa decemlineata; experiment: Insecticidal activity against first-instar larval stage of Leptinotarsa decemlineata infested potato leaves assessed as mortality at 0.5 mg after 24 hr relative to control; format: functional
[7] = system: Leptinotarsa decemlineata; experiment: Insecticidal activity against third-instar larval stage of Leptinotarsa decemlineata infested potato leaves assessed as mortality at 0.5 mg after 24 hr relative to control; format: functional
[8] = system: Leptinotarsa decemlineata; experiment: Insecticidal activity against first-instar larval stage of Leptinotarsa decemlineata infested potato leaves assessed as mortality at 1 mg after 12 hr relative to control; format: functional
[9] = system: Leptinotarsa decemlineata; format: functional, Instar larval stage; remark: listed apart in the source
[10] = system: Leptinotarsa decemlineata; experiment: Insecticidal activity against third-instar larval stage of Leptinotarsa decemlineata infested potato leaves assessed as mortality at 1 mg after 12 hr relative to control; format: functional
[11] = system: Leptinotarsa decemlineata; experiment: Insecticidal activity against adult Leptinotarsa decemlineata infested potato leaves assessed as mortality at 1 mg after 24 hr relative to control; format: functional
[12] = system: Leptinotarsa decemlineata; experiment: Insecticidal activity against adult Leptinotarsa decemlineata infested potato leaves assessed as mortality at 1 mg after 96 hr relative to control; format: functional
[13] = system: Leptinotarsa decemlineata; format: functional, Instar larval stage; remark: listed apart in the source
[14] = system: Leptinotarsa decemlineata; format: functional, Instar larval stage; remark: listed apart in the source
[15] = system: Leptinotarsa decemlineata; experiment: Insecticidal activity against adult Leptinotarsa decemlineata infested potato leaves assessed as mortality at 0.5 mg after 24 hr relative to control; format: functional
[16] = system: Leptinotarsa decemlineata; format: functional, Instar larval stage; remark: listed apart in the source
[17] = system: Leptinotarsa decemlineata; format: functional, Instar larval stage; remark: listed apart in the source
[18] = system: Leptinotarsa decemlineata; experiment: Insecticidal activity against adult Leptinotarsa decemlineata infested potato leaves assessed as mortality at 0.5 mg after 48 hr relative to control; format: functional
[19] = system: Leptinotarsa decemlineata; experiment: Insecticidal activity against first-instar larval stage of Leptinotarsa decemlineata infested potato leaves assessed as mortality at 0.5 mg after 12 hr relative to control; format: functional
[20] = system: Leptinotarsa decemlineata; experiment: Insecticidal activity against first-instar larval stage of Leptinotarsa decemlineata infested potato leaves assessed as mortality at 1 mg after 96 hr relative to control; format: functional
[21] = system: Leptinotarsa decemlineata; experiment: Insecticidal activity against adult Leptinotarsa decemlineata infested potato leaves assessed as mortality at 0.5 mg after 12 hr relative to control; format: functional
[22] = system: Leptinotarsa decemlineata; experiment: Insecticidal activity against adult Leptinotarsa decemlineata infested potato leaves assessed as mortality at 0.5 mg after 96 hr relative to control; format: functional
[23] = system: Leptinotarsa decemlineata; experiment: Insecticidal activity against first-instar larval stage of Leptinotarsa decemlineata infested potato leaves assessed as mortality at 0.5 mg after 96 hr relative to control; format: functional
[24] = system: Leptinotarsa decemlineata; experiment: Insecticidal activity against third-instar larval stage of Leptinotarsa decemlineata infested potato leaves assessed as mortality at 0.5 mg after 12 hr relative to control; format: functional
[25] = system: Leptinotarsa decemlineata; format: functional, Instar larval stage; remark: listed apart in the source
[26] = system: Leptinotarsa decemlineata; experiment: Insecticidal activity against adult Leptinotarsa decemlineata infested potato leaves assessed as mortality at 1 mg after 12 hr relative to control; format: functional
[27] = system: Leptinotarsa decemlineata; experiment: Insecticidal activity against first-instar larval stage of Leptinotarsa decemlineata infested potato leaves assessed as mortality at 0.5 mg after 48 hr relative to control; format: functional
[28] = system: Leptinotarsa decemlineata; format: functional, Instar larval stage; remark: listed apart in the source
[29] = system: Leptinotarsa decemlineata; experiment: Insecticidal activity against third-instar larval stage of Leptinotarsa decemlineata infested potato leaves assessed as mortality at 1 mg after 24 hr relative to control; format: functional
[30] = system: Leptinotarsa decemlineata; experiment: Insecticidal activity against first-instar larval stage of Leptinotarsa decemlineata infested potato leaves assessed as mortality at 1 mg after 48 hr relative to control; format: functional
[31] = system: Leptinotarsa decemlineata; experiment: Insecticidal activity against second-instar larval stage of Leptinotarsa decemlineata infested potato leaves assessed as mortality at 0.5 mg after 12 hr relative to control; format: functional
[32] = system: Leptinotarsa decemlineata; format: functional, Instar larval stage; remark: listed apart in the source

Measured: mortality

CC(C)=C1CC[C@@H](C)CC1=O [PULEGONE]
90%: Sitophilus granarius

CC1(C)[C@H](/C=C(\Cl)C(F)(F)F)[C@@H]1C(=O)O[C@@H](C#N)c1cccc(Oc2ccccc2)c1 (relative stereo) [REL-LAMBDA CYHALOTHRIN]
80%: [1]
100%: [2] | [3] | [4] | [11] | [12] | [13] | [15] | [16] | [17] | [18] | [20] | [21] | [22] | [23] | [25] | [27] | [30] | [32]
73.3%: [24] | [31]
60%: [8]
93.3%: [6] | [9] | [28]
90%: [5] | [26] | [29]
86.7%: [7] | [10] | [14]
63.3%: [19]
